# Measured values: patent publication US20180153830A1, “SELECTIVE INHIBITORS OF UNDIFFERENTIATED CELLS” (Yissum Research Development Company of the Hebrew …, priority 2012, published 2018)
# Experiments:
# Type in all cases: cell-based
# [1] = tested on: iPS-derived cardiomyocytes; assay: CellTiter-Glo counter-screen, cardiomyocytes; settings: Homo sapiens, Cardiomyocyte
# Description: Human induced pluripotent stem cell-derived cardiomyocytes were obtained from Cellular Dynamics International (Madison, Wis.), and handled according to the manufacturer's instructions;
# (§1) 696 confirmed hits from the confirmation screen were tested for profiling in a panel of 13 different cell types, using the same screening protocol described above (except in the case of embryonic stem cell-derived neural stem cells (NSCs) and mesenchymal stem cells (MSCs), for which the protocol is described below). As discussed below, compounds were tested either in dose-dependent multiple concentration manner or in single concentration manner. CSES2 and CSES2-SO2/3 cell lines and the early endodermal progenitors derived from this cell line (CSES2-SO2/3-differentiated) were screened at 8 concentrations ranging from 50 μM to 23 nM with 1:3 serial dilution steps. BJ-iPS28 cell line and the BJ fibroblasts from which it was derived were screened at 6 concentrations ranging from 50 μM to 200 nM with 1:3 serial dilution steps. Cardiomyocytes were screened in one concentration of 20 μM. HeLa and NTERA-2 cell lines were screened in duplicates of 20 μM. Kelly and Huh-7 were screened in triplicates of 20 μM. Hepatocytes were screened in duplicates of 20 μM in the original 96-well plates in which the cells arrived (40,000 cells per well, in 160 μl medium, the volumes of all reagents involved were adjusted accordingly). MSCs and NSCs were screened in duplicates of 12.5 μM.
# (§2) In order to identify highly-selective cytotoxic inhibitors of hPSCs, the 696 cytotoxic inhibitors of hPSCs identified as described in Example 1 were counter-screened as described in the Materials and Methods section against other cell types, representative of all germ layers and developmental stages. Importantly, many of these cell types were differentiated from human ES or iPS cells. The screened cell types included ES-derived neural stem cells (NSCs), ES-derived mesenchymal stem cells (MSCs), ES-derived endodermal progenitor cells, ES-derived hepatocytes, iPS-derived cardiomyocytes, iPS-derived fibroblasts of origin (BJ fibroblasts), and three cancer cell lines: neuroblastoma (Kelly), cervical cancer (HeLa) and hepatocarcinoma (Huh7). The cell types and their relationship to stem cells are depicted schematically in FIG. 14.
# [2] = tested on: HeLa cells; assay: CellTiter-Glo counter-screen, HeLa; settings: Homo sapiens, cancer cells
# Description: (§3) The cervical carcinoma cell line HeLa, teratocarcinoma cell line NTERA-2, and immortalized BJ fibroblast cell line, were cultured in DMEM supplemented with 10% FBS, penicillin (50 U/ml) and streptomycin (50 μg/ml).
# as §1, §2
# [3] = tested on: CSES2-SO2/3 embryonic stem cells; assay: CellTiter-Glo luminescent cell viability screen, CSES2-SO2/3; settings: Homo sapiens
# Description: (§4) 5,000 CSES2 cells were plated in 50 μl per well of mTeSR1 medium into black 384-well clear-bottom plates (Falcon BD) pre-coated with Matrigel™ using WellMate cell dispenser (Matrix, Hudson, N.H.). 24 hours after plating, medium was replaced with 25 μl of fresh medium and 25 μl of 40 μM compound medium solutions in 1% DMSO from the intermediate compound dilution plates. The plates were incubated at 37° C., in a 5% CO2 atmosphere, for the entire duration of the screen, apart from the time required for liquid handling. Cell viability was determined 24 hours after compound treatment using CellTiter-Glo® luminescent cell viability assay kits. 50 μl of CellTiter-Glo® reagent was added to each well of the assay plates and fully mixed. After incubation at room temperature for 15 minutes, 25 μl of liquid was transferred from each well into a white opaque-bottom 384-well plate (PerkinElmer), and luminescence was measured using an EnVision® plate reader (PerkinElmer). 16 neutral control wells (0.5% DMSO) and 8 positive control wells (5 μM amsacrine hydrochloride were used to normalize the compound effect. All liquid transfer steps were handled with a Biomek® FXP Laboratory Automation Workstation (Beckman Coulter, Fullerton, Calif.) and Muitidrop Combi liquid dispenser (Thermo Fisher, Waltham, Mass.). An Assay Analyzer (Genedata, Basel, Switzerland) was used for data pattern correction and calculation. The Spotfire software (Spotfire, Somerville, Mass.) was used for data illustration.
# The compounds identified as hits from the primary screen were retested at a concentration of 20 μM against three pluripotent stem cell lines (CSES2, H9 and CSES2-SO2/3) for confirmation screens.
# as §1
# (§5) The raw intensity data for each well were background-corrected by subtraction of the median intensities across all positive control wells on the same plate, and used to calculate the inhibitory effect of each compound per cell line. A Genedata Assay Analyzer and Condoseo were used for data pattern correction, calculation and IC50 curve fitting. A Z′ factor was determined for each plate.
# [4] = tested on: BJ-fibroblasts; assay: CellTiter-Glo counter-screen, BJ-fibroblasts; settings: Homo sapiens
# Description: as §3, §1, §2
# In addition, the identified compounds were screened at 6 concentrations using the BJ-fibroblasts from which the iPS line BJ-iPS28 had been derived, and reliable EC50 values were thereby calculated for both the iPS cells and for their somatic cells of origin.
# [5] = tested on: Huh7 cells; assay: CellTiter-Glo counter-screen, Huh7; settings: Homo sapiens, Huh-7, cancer cells
# Description: The hepatocarcinoma cell line Huh-7 was cultured in a DMEM/F12 (1:1) medium, supplemented with 10% FBS, penicillin (50 U/ml) and streptomycin (50 μg/ml).
# as §1, §2
# [6] = tested on: BJ-iPS28 induced pluripotent stem cells; assay: CellTiter-Glo luminescent cell viability screen, BJ-iPS28; settings: Homo sapiens, 24 h
# Description: as §4
# as §1, with “BJ-iPS28 cell line and the BJ fibroblasts from which it was derived were screened at 6 concentrations ranging from 50 μM to 200 nM with 1:3 serial dilution steps.” left out
# as §5
# The effect of the selected compounds on human iPS cells was then determined. […]
# [7] = CellTiter-Glo counter-screen, hepatocytes; settings: human, human embryonic stem cell-derived hepatocytes (Cellartis), read-out: Inhibition (%) ES-derived hepatocytes
# Description: Human embryonic stem cell-derived hepatocytes were obtained from Cellartis (Goteborg, Sweden), and handled according to the manufacturer's instructions;
# as §1, §2
# [8] = tested on: ES-derived neural stem cells; assay: CellTiter-Glo counter-screen, neural stem cells; settings: Homo sapiens, Neural stem cell
smiles,measurement,setting,value
C(=N\C1CCC(CC2CCCCC2)CC1)/OC1CCOC1 (stereo not shown) [PluriSIn #15],inhibition at 20 µM,[1],3.8%
same,inhibition at 20 µM,[2],17.8%
same,EC50,[3]; 24 h,10 µM
same,inhibition at 20 µM,"[3]; at 20 μM, pluripotent stem cells",72.2%
same,EC50,"[4]; 24 hours, differentiated cells",> 50 µM
same,inhibition at 20 µM,[4]; at 20 μM,-6.1%
same,inhibition at 20 µM,[5],22.2%
same,EC50,[6],3.94 µM
same,inhibition at 20 µM,[7],18.8%
same,inhibition at 12.5 µM,[8],70.3%
